The values that follow are results of earlier work, collected in paper PMC6804253, “Predicting and Experimentally Validating Hot-Spot Residues at Protein–Protein Interfaces” (ACS Chemical Biology, 2019).

Substitutions are numbered along the chain they refer to. Read-outs that look alike come from different tables or passages of the source.

The series concerns PPIs of the SKEMPI data set (by PDBID). The settings on record: ref SKEMPI, cited from earlier work; for sk_ddG_kJ: SKEMPI experimental ΔΔG of binding; for sk_ddG_kJ / sk_ddG_kJ (SKEMPI experimental ΔΔG) / sk_ddG_kJ (SKEMPI experimental ΔΔG, mutation to alanine): single mutation to alanine; for sk_class: class of the SKEMPI experimental ΔΔG; for sk_class (class of SKEMPI experimental ΔΔG): class by ΔΔG threshold 4.184 kJ/mol; for sk_ddG_kJ (SKEMPI experimental ΔΔG, mutation to alanine): residue group in r_group.

Where [1] appears, read: sheet sortedByGroup, r_group FAMILYVW
[2] abbreviates: complex given by PDBID, residue group SQNT.

Turning to 1GC1 SC60A, the sk_class entry is “Neutral (neutral (little effect) 4.184 kJ/mol < ΔΔG > −4.184 kJ/mol)”. Further, the sk_ddG_kJ (PPI given by PDBID) is given as -0.38 kJ.
Regarding 1VFB IC124A, the “sk_class (class of SKEMPI experimental ΔΔG)” value was “Positive (positive (a hot residue) ΔΔG ≥ 4.184 kJ/mol)”.
For the molecule 1GC1 QC20A, the sk_class result is listed as “Neutral (neutral (little effect) 4.184 kJ/mol < ΔΔG > −4.184 kJ/mol)”. Further, the sk_ddG_kJ (PPI given by PDBID) is -0.08 kJ.
With 1VFB VC120A, the “sk_class (class of SKEMPI experimental ΔΔG)” value is listed as “Neutral (neutral (little effect) 4.184 kJ/mol < ΔΔG > −4.184 kJ/mol)”.
In the case of 1DQJ LC75A, the “sk_ddG_kJ (SKEMPI experimental ΔΔG)” value (PPI given by PDBID, sheet sortedByGroup, r_group FAMILYVW) is 6.07 kJ.
Turning to 1DQJ DC101A, the sk_ddG_kJ (complex by PDBID) was 6.07 kJ.
As for 1GC1 NC30A, the sk_class entry is “Neutral (neutral (little effect) 4.184 kJ/mol < ΔΔG > −4.184 kJ/mol)”. In addition, the sk_ddG_kJ (PPI given by PDBID) was 0.71 kJ.
For 1GC1 QC64A, the sk_class result is given as “Neutral (neutral (little effect) 4.184 kJ/mol < ΔΔG > −4.184 kJ/mol)”. For the setting “PPI given by PDBID”, the sk_ddG_kJ was 1.84 kJ.
Regarding 1DQJ WC63A, the “sk_ddG_kJ (SKEMPI experimental ΔΔG)” value under setting [1] is 5.65 kJ.
Regarding 1GC1 SC23A, the sk_class result is on record as “Neutral (neutral (little effect) 4.184 kJ/mol < ΔΔG > −4.184 kJ/mol)”. Further, the sk_ddG_kJ (PPI given by PDBID) was 1.21 kJ.
As to 1DQJ WC62A, the “sk_ddG_kJ (SKEMPI experimental ΔΔG)” value under setting [1] is recorded as 3.18 kJ.
With 1A22 PA61A, the “sk_class (class of SKEMPI experimental ΔΔG)” value is reported as “Positive (positive (a hot residue) ΔΔG ≥ 4.184 kJ/mol)”. Also, for the setting “complex given by PDBID”, the “sk_ddG_kJ (SKEMPI experimental ΔΔG, mutation to alanine)” value is reported as 5.02 kJ.
Take 1VFB LC129A: the “sk_class (class of SKEMPI experimental ΔΔG)” value is “Neutral (neutral (little effect) 4.184 kJ/mol < ΔΔG > −4.184 kJ/mol)”.
1DQJ SC100A: under setting [2], the “sk_ddG_kJ (SKEMPI experimental ΔΔG)” value is 3.26 kJ.
With 1GC1 QC33A, the sk_class result is given as “Neutral (neutral (little effect) 4.184 kJ/mol < ΔΔG > −4.184 kJ/mol)”. Under “PPI given by PDBID”, the sk_ddG_kJ was 0.46 kJ.
In the case of 1DQJ RC21A, the sk_ddG_kJ (complex by PDBID) was 4.90 kJ.
With 1GC1 SC31A, the sk_class entry was “Neutral (neutral (little effect) 4.184 kJ/mol < ΔΔG > −4.184 kJ/mol)”. Also, where the note is “PPI given by PDBID”, the sk_ddG_kJ was 0.46 kJ.
For 1GC1 TC15A, the sk_class entry was “Neutral (neutral (little effect) 4.184 kJ/mol < ΔΔG > −4.184 kJ/mol)”. For the same molecule, under “PPI given by PDBID”, the sk_ddG_kJ is 1.34 kJ.
1VFB YC23A: the “sk_class (class of SKEMPI experimental ΔΔG)” value is reported as “Neutral (neutral (little effect) 4.184 kJ/mol < ΔΔG > −4.184 kJ/mol)”.
In the case of 1GC1 TC17A, the sk_class entry is recorded as “Neutral (neutral (little effect) 4.184 kJ/mol < ΔΔG > −4.184 kJ/mol)”. For the same molecule, the sk_ddG_kJ (PPI given by PDBID) was -0.54 kJ.
As for 1DQJ TC89A, under setting [2], the “sk_ddG_kJ (SKEMPI experimental ΔΔG)” value is given as 3.51 kJ.
On to 1GC1 QC94A, for which the sk_class entry is on record as “Neutral (neutral (little effect) 4.184 kJ/mol < ΔΔG > −4.184 kJ/mol)”. Moreover, under “PPI given by PDBID”, the sk_ddG_kJ is -0.46 kJ.
In the case of 1DQJ KC97A, where the note is “complex by PDBID”, the sk_ddG_kJ is 14.73 kJ.
For the molecule 1DQJ YC20A, the “sk_ddG_kJ (SKEMPI experimental ΔΔG)” value under setting [1] is 13.77 kJ.
1GC1 QC40A: the sk_class entry is recorded as “Neutral (neutral (little effect) 4.184 kJ/mol < ΔΔG > −4.184 kJ/mol)”. Also, the sk_ddG_kJ (PPI given by PDBID) is listed as -1.72 kJ.
For 1DQJ KC96A, the sk_ddG_kJ (complex by PDBID) was 25.77 kJ.
As to 1A22 PA59A, the “sk_class (class of SKEMPI experimental ΔΔG)” value is “Neutral (neutral (little effect) 4.184 kJ/mol < ΔΔG > −4.184 kJ/mol)”. In addition, the “sk_ddG_kJ (SKEMPI experimental ΔΔG, mutation to alanine)” value (complex given by PDBID) is reported as 1.59 kJ.
1VFB SC24A: the sk_class result is “Neutral (neutral (little effect) 4.184 kJ/mol < ΔΔG > −4.184 kJ/mol)”. In addition, under “PPI given by PDBID”, the sk_ddG_kJ is 3.56 kJ.
On to 1GC1 NC73A, for which the sk_class result was “Neutral (neutral (little effect) 4.184 kJ/mol < ΔΔG > −4.184 kJ/mol)”. Besides, the sk_ddG_kJ (PPI given by PDBID) is -0.46 kJ.
Turning to 1A22 PA48A, the “sk_class (class of SKEMPI experimental ΔΔG)” value was “Neutral (neutral (little effect) 4.184 kJ/mol < ΔΔG > −4.184 kJ/mol)”. Moreover, under “complex given by PDBID”, the “sk_ddG_kJ (SKEMPI experimental ΔΔG, mutation to alanine)” value is on record as 1.67 kJ.
As for 1GC1 NC32A, the sk_class result is reported as “Neutral (neutral (little effect) 4.184 kJ/mol < ΔΔG > −4.184 kJ/mol)”. In addition, where the note is “PPI given by PDBID”, the sk_ddG_kJ is on record as 0.75 kJ.

B1: 1IAR TA6A (protein, UniProt P05112 25-153, looked up, variant T6A)
Interleukin-4: HKCDIALQEIIKTLNSLTEQKTLCTELTVTDIFAASKNTTEKETFCRAATVLRQFYSHHEKDTRCLGATAQQFHRHKQLIRFLKRLDRNLWGLAGLNSCPVKEANQSTLENFLERLKTIMREKYSKCSS
For the molecule B1, the sk_class entry is “Neutral (neutral (little effect) 4.184 kJ/mol < ΔΔG > −4.184 kJ/mol)”. In addition, where the note is “PPI given by PDBID”, the sk_ddG_kJ is given as -0.42 kJ.

B2: 1IAR NA15A (protein, UniProt P05112 25-153, looked up, variant N15A)
Interleukin-4: B1 Interleukin-4 with A6T, N15A
As to B2, the sk_class result is recorded as “Neutral (neutral (little effect) 4.184 kJ/mol < ΔΔG > −4.184 kJ/mol)”. For the same molecule, for the setting “PPI given by PDBID”, the sk_ddG_kJ is -0.13 kJ.

B3: 1IAR SA16A (protein, UniProt P05112 25-153, looked up, variant S16A)
Interleukin-4: B1 Interleukin-4 with A6T, S16A
Take B3: the sk_class result was “Neutral (neutral (little effect) 4.184 kJ/mol < ΔΔG > −4.184 kJ/mol)”. Also, the sk_ddG_kJ (PPI given by PDBID) is listed as -0.75 kJ.

B4: 1IAR TA13A (protein, UniProt P05112 25-153, looked up, variant T13A)
Interleukin-4: B1 Interleukin-4 with A6T, T13A
In the case of B4, the sk_class result is recorded as “Neutral (neutral (little effect) 4.184 kJ/mol < ΔΔG > −4.184 kJ/mol)”. Also, under “PPI given by PDBID”, the sk_ddG_kJ is reported as 4.10 kJ.

B5: 1IAR NA89A (protein, UniProt P05112 25-153, looked up, variant N89A)
Interleukin-4: B1 Interleukin-4 with A6T, N89A
As for B5, the sk_class entry is “Positive (positive (a hot residue) ΔΔG ≥ 4.184 kJ/mol)”. The sk_ddG_kJ (PPI given by PDBID) was 6.53 kJ.

B6: 1IAR QA8A (protein, UniProt P05112 25-153, looked up, variant Q8A)
Interleukin-4: B1 Interleukin-4 with A6T, Q8A
For the molecule B6, the sk_class entry was “Neutral (neutral (little effect) 4.184 kJ/mol < ΔΔG > −4.184 kJ/mol)”. Under “PPI given by PDBID”, the sk_ddG_kJ is on record as -0.08 kJ.

B7: 2PCC VA197A (protein, UniProt P00431 68-361, looked up, variant V197A)
Cytochrome c peroxidase, …: TTPLVHVASVEKGRSYEDFQKVYNAIALKLREDDEYDNYIGYGPVLVRLAWHTSGTWDKHDNTGGSYGGTYRFKKEFNDPSNAGLQNGFKFLEPIHKEFPWISSGDLFSLGGVTAVQEMQGPKIPWRCGRVDTPEDTTPDNGRLPDADKDADYVRTFFQRLNMNDREVVALMGAHALGKTHLKNSGYEGPWGAANNAFTNEFYLNLLNEDWKLEKNDANNEQWDSKSGYMMLPTDYSLIQDPKYLSIVKEYANDQDKFFKDFSKAFEKLLENGITFPKDAPSPFIFKTLEEQGL
In the case of B7, the “sk_class (class of SKEMPI experimental ΔΔG)” value is “Positive (positive (a hot residue) ΔΔG ≥ 4.184 kJ/mol)”. The “sk_ddG_kJ (SKEMPI experimental ΔΔG, mutation to alanine)” value (complex given by PDBID) is given as 8.74 kJ.

B8: 1KTZ IB125A (protein, UniProt P37173 23-166, looked up, variant I125A)
extracellular domain: TIPPHVQKSVNNDMIVTDNNGAVKFPQLCKFCDVRFSTCDNQKSCMSNCSITSICEKPQEVCVAVWRKNDENITLETVCHDPKLPYHDFILEDAASPKCIMKEKKKPGETFFMCSCSSDECNDNAIFSEEYNTSNPDLLLVIFQ
modifications: extracellular domain
On to B8, for which the “sk_class (class of SKEMPI experimental ΔΔG)” value was “Neutral (neutral (little effect) 4.184 kJ/mol < ΔΔG > −4.184 kJ/mol)”. Also, the “sk_ddG_kJ (SKEMPI experimental ΔΔG, mutation to alanine)” value (complex given by PDBID) was 2.26 kJ.
